Target: T1, full-length human YAP1 (Homo sapiens, UniProt P46937)
T1 construct: purified recombinant HA-tagged full-length human YAP1; made in house
Test: Inhibitor-coupled bead binding of recombinant HA-tagged YAP
Conditions: immunoblot of bound HA-YAP
Description: FIGS. 1A-G show the identification of a YAP1-TEAD1 binding interface inhibitor. […] The Gal4 DBD was fused to residues 50-171 of human YAP1 and the Gal4 AD was fused to residues 194-411 of human TEAD1. These fusions were expressed in yeast containing reporters harboring Gal4 upstream activating sequences (UAS). […] Yeast expressing either p53-DBD and SV40 large T antigen-AD fusions or YAP1-DBD and TEAD1-AD fusions were plated on selective media. Compounds were pinned onto the plate surfaces by robotic transfer and subsequently examined for halo formation (indicated by red circles). […] Pull-down products were analyzed by SDS-PAGE and silver staining. […] Raw binding sensorgrams obtained at each concentration were fitted to a 1:1 binding model and Kon, Koff and KD were calculated by simultaneous non-linear regression analyses.
Protein and mRNA analyses, immunoprecipitation, in vitro bead-coupled inhibitor binding assays and HPLC analyses. […] Antigen-antibody complexes were detected using appropriate horseradish peroxidase-conjugated secondary antibodies (GE Healthcare) and enhanced chemiluminescence (Amersham ECL Prime). […] For quantitative RT-PCR, extraction of RNA was performed using Trizol® (Life Technologies). Total RNA was then quantified and integrity assessed using an Agilent 2100 Bioanalyzer (Agilent Technology). […]

T1 sequence (P46937 whole entry): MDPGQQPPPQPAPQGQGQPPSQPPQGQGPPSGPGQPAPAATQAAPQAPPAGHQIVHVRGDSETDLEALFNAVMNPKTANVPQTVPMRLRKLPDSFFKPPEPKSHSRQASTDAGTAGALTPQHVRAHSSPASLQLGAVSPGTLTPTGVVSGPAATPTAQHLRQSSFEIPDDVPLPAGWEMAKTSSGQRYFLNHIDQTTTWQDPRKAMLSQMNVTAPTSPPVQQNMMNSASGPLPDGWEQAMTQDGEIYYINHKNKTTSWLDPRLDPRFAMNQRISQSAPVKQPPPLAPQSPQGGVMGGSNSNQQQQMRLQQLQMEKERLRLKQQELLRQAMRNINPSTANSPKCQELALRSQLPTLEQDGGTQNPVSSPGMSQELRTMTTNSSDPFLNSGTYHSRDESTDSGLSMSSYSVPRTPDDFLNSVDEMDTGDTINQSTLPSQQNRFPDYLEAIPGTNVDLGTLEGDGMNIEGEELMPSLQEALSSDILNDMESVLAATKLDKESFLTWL

COc1ccc(-c2cc(-c3ccccc3)nc3c2CC(=O)Nc2ccccc2-3)cc1OC [NSC682769]
Binding of YAP to compound-coupled beads: associated strongly

Source: US20240108634A1, “COMPOSITIONS AND METHODS FOR INHIBITING YAP” (The United States Government as represented by the …, priority 2021, published 2024)
